pEC50, pIC50: −log10 of the molar value.
Key:
recombinant HDAC2 = target: T1, recombinant HDAC2 (Homo sapiens, UniProt Q92769); test: HDAC2 fluorimetric biochemical assay
T1 construct: purchased BPS Bioscience 50002
Protocol: HDAC2 activity was determined using a fluorimetric assay at BPS Bioscience (San Diego, CA, USA). Compounds were dissolved in DMSO (Sigma), and serial dilutions were further diluted in HDAC assay buffer (BPS). These working solutions were incubated in duplicate at room temperature for 3 h in a mixture containing HDAC assay buffer, BSA (Fisher Scientific), and recombinant HDAC2 (BPS). The enzymatic reactions were initiated by the addition of a fluorogenic, acetylated peptide substrate (BPS) and proceeded for 30 min at 37 °C. Then, HDAC assay developer (BPS) was added, and after further incubation at room temperature, fluorescence intensity was measured at an excitation of 360 nm and an emission of 460 nm using a Tecan Infinite M1000 microplate reader. Trichostatin A (TSA, Selleckchem, Houston, TX, USA) was used as a reference inhibitor.
For the biochemical assays, the fluorescence signal relative to the background (assay mixture in the absence of the enzyme) was subtracted from each fluorescent intensity data. Activity in the presence of compound was expressed as a percentage of fluorescence intensity in the absence of the compound.

SH-SY5Y cells = test: Human H3 acetylation assay (Western blot), cellular HDAC activity; format: cell-based; conditions: 1 and 0.1 µM, 2 and 6 h
Protocol: Human H3 acetylation assays: for the determination of global and K9-specific acetylation levels, 500,000 SH-SY5Y cells were seeded in 6-well plates in DMEM/F12 1:1 (Sigma), supplemented with 2 mM glutamine (LabClinics) and 10% FBS (Sigma) and incubated at 37 °C and 5% CO2 in a humid atmosphere. […] After 2 and 6 h of treatment, cells were harvested and centrifuged at 250× g for 4 min at room temperature and cell pellets used for total histone extraction with EpiQuik Total Histone Extraction Kit (Epigentek, Farmingdale, NY, USA) following manufacturer’s instructions. 1 µg of histone extracts were run in MOPS buffer in 12% PAGE (Life Technologies, Carlsbad, CA, USA) and transferred with the iBlot system to nitrocellulose membranes. Transferred blots were stained with the Ponceau S solution (Sigma) and scanned with an Epson Perfection V600 Photo Scanner. Membranes were blocked in blocking buffer (5% skimmed milk in PBS-Tween 0.1%) for 1 h at room temperature, and after blocking blots were incubated with rabbit polyclonal anti-H3K9Ac (1:2000 dilution, Abcam, Cambridge, UK) and rabbit polyclonal anti-H3ac (K9 + K14 + K18 + K23 + K27) (1:2000 dilution, Abcam) overnight at 4 °C in ablocking buffer. […]

human S1P1 receptor = target: T2, human S1P1 receptor (Homo sapiens, UniProt P21453); test: CellKey impedance assay in CHO cells, agonistic and antagonistic effect; format: cell-based
T2 construct: host or cells: CHO cells
Protocol: Cell on impedance modulation, using the CellKey (Cellular Dielectric Spectroscopy) detection method (CellKey 96, MDS Sciex, Concord, ON, Canada) at Eurofins Pharma Discovery Services (Celle-Lévescault, France). CHO cells were seeded onto a 96-well plate at 15.104 cells/well in HBSS buffer (Invitrogen), 20 mM HEPES (Invitrogen), 10% FCS (Invitrogen), and 0.1% BSA (Sigma), allowed to equilibrate for 60 min at 28 °C. DMSO solutions of compounds were diluted in HBSS and 0.1% BSA. Plates were placed onto the system, and measurements were made at a temperature of 28 °C. To measure the agonistic effect, compounds and controls in duplicate were added simultaneously to all of the wells using an integrated fluidics system. Impedance measurements were monitored for 10 min after ligand addition. […] To measure the antagonistic effect, compounds and controls in duplicate were pre-incubated for 15 min before the addition of the reference agonist S1P at 0.01 µM (EC80). Impedance measurements were monitored for 10 min.
Evaluation of the agonistic (a) and antagonist (b) effect of the compounds on the human S1P1 receptor. […] Data are expressed as percentage of control (no compound) activity, n = 2. TSA was used as a control; (d) Cellular HDAC activity assay. […] SAHA was used as a control. Ponceau S staining was used as loading control. Veh: Vehicle. […] TSA: Trichostatin A. SAHA: suberoylanilide hydroxamic acid.

KDM1A = KDM1A (Homo sapiens, UniProt O60341); test: In vitro potency, KDM1A inhibition; format: biochemical
[1] = test system: C57BL/6 mice with chronic EAE; test: Chronic EAE induced by MOG35–55, clinical score; format: in vivo, mouse
Protocol: Mice also received i.p. injections of 200 ng of pertussis toxin on days 0 and 2 [32]. Immunized mice were randomly distributed in different groups. […] MPTP is a prodrug which is converted to the neurotoxin 1-methyl-4-phenylpyridinium (MPP+) by MAO-B in vivo.
Compounds were administered once daily for five consecutive days in two cycles, from day 12 to 16 and from day 19 to 23 post-immunization. […] HPβCD was included to facilitate dissolution. Mice were scored daily for signs of EAE according to the following clinical scoring system: 0, no clinical signs; 0.5, partial loss of tail tonicity; 1, complete loss of tail tonicity; 2, flaccid tail and abnormal gait; 3, complete hind leg paralysis; 4, hind leg paralysis with hind body paresis; 5, hind and foreleg paralysis; and 6, death. Intermediate phenotypes were scored as a half integer. Animals were sacrificed when they kept a score of 5 more than 24 h. Investigators which administered the compounds and scored the animals were blinded to the treatments.

T2 sequence (P21453 whole entry): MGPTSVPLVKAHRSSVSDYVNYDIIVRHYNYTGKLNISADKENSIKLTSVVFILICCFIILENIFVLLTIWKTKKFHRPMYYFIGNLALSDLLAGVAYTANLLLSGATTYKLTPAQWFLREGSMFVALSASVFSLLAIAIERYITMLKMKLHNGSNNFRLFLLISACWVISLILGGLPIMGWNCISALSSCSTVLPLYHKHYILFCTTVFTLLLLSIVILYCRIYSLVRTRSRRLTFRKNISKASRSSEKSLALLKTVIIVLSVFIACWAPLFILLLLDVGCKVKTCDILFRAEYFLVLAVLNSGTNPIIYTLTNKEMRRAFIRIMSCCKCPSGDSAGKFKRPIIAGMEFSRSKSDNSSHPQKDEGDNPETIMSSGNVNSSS
T1 sequence (Q92769 whole entry): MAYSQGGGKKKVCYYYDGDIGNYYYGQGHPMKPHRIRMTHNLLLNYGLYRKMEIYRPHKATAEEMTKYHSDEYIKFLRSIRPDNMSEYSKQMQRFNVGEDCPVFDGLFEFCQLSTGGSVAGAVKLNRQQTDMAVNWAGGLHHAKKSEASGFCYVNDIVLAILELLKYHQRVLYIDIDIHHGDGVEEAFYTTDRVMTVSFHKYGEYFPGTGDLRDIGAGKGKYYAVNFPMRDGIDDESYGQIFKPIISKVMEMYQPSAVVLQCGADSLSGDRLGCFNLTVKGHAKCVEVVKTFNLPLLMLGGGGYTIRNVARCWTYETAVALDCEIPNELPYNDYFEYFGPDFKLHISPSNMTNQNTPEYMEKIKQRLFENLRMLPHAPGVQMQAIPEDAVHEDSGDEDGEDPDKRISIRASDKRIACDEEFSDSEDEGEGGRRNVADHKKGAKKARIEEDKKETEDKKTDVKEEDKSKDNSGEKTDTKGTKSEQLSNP

CCCCCCCCc1ccc(CC[C@](N)(CO)COP(=O)(O)O)cc1 [FTY720-P, Fingolimod Phosphate]
impact on recombinant HDAC2 activity (recombinant HDAC2): unable to confirm the previous studies reporting that FTY720 or FTY720-P had any significant impact
impact on cellular HDAC activity (acetylated H3 or H3K9 levels) (SH-SY5Y cells): unable to confirm the previous studies reporting that FTY720 or FTY720-P had any significant impact

CCCCCCCCCCCCC/C=C/[C@@H](O)[C@@H](N)COP(=O)(O)O [S1P]
EC80, reference agonist (human S1P1 receptor; concentration used in antagonist mode): 0.01 µM
pEC50 (human S1P1 receptor; impedance, agonistic effect, read-out: EC50, reference agonist): 9.00

CCCCCCCCc1cccc(NC(=O)[C@H](N)COP(=O)(O)O)c1 [VPC23019]
pIC50 (human S1P1 receptor; impedance, vs S1P at 0.01 µM, read-out: IC50, reference antagonist): 7.57

C#CCN[C@@H]1CCc2ccccc21 [rasagiline, reference compound]
pIC50 (KDM1A): < 4.00
mice with no or only mild clinical signs at the end of the study ([1]; EAE experiment 2): 44%
effect on clinical course / disease severity ([1]; EAE experiment 2 (mild), p.o. ORY-2001 0.05, 0.5, 1 mg/kg, ORY-LSD1 90, 180 µg/kg, rasagiline 3 mg/kg): showed no overall protective effect
animals with severe signs (maximum clinical score 3.5–6) ([1]; EAE experiment 2, highest dose tested): 33%
onset of clinical signs ([1]; EAE experiment 2, rasagiline 3 mg/kg): slight delay of the onset of the clinical signs

— article PMC9323733, “Efficacy of Vafidemstat in Experimental Autoimmune Encephalomyelitis Highlights the KDM1A/RCOR1/HDAC Epigenetic Axis in Multiple Sclerosis” (Pharmaceutics, 2022)
